≈ marks a conversion by molar mass, not a printed value.
Columns and labels:
Type in all cases: functional
[1] = tested on: Escherichia coli; test: Antimicrobial activity against rifampin-resistant Escherichia coli J53 transconjugated with Proteus vulgaris Pv5 expressing beta-lactamase PER-1 by Etest
[2] = tested on: Proteus vulgaris; test: Antimicrobial activity against Proteus vulgaris Pv7 expressing beta-lactamase PER-1 by Etest
[3] = tested on: Escherichia coli; test: Antimicrobial activity against rifampin-resistant Escherichia coli J53 transconjugated with Proteus vulgaris Pv8 expressing beta-lactamase PER-1 by Etest
[4] = tested on: Proteus vulgaris; test: Antimicrobial activity against Proteus vulgaris Pv9 expressing beta-lactamase PER-1 by […]
[5] = tested on: Proteus vulgaris; test: Antimicrobial activity against Proteus vulgaris Pv5 expressing beta-lactamase PER-1 by […]
[6] = tested on: Proteus vulgaris; test: Antimicrobial activity against Proteus vulgaris Pv7 expressing beta-lactamase PER-1 by […]
[7] = tested on: Escherichia coli; test: Antimicrobial activity against rifampin-resistant Escherichia coli J53 transconjugated with Proteus vulgaris Pv5 expressing beta-lactamase PER-1 by […]
[8] = tested on: Proteus vulgaris; test: Antimicrobial activity against Proteus vulgaris Pv8 expressing beta-lactamase PER-1 by […]
[9] = tested on: Proteus vulgaris; test: Antimicrobial activity against Proteus vulgaris Pv8 expressing beta-lactamase PER-1 by Etest
[10] = tested on: Escherichia coli; test: Antimicrobial activity against rifampin-resistant Escherichia coli J53 transconjugated with Proteus vulgaris Pv9 expressing beta-lactamase PER-1 by Etest
[11] = tested on: Escherichia coli; test: Antimicrobial activity against rifampin-resistant Escherichia coli J53 transconjugated with Proteus vulgaris Pv8 expressing beta-lactamase PER-1 by […]
[12] = tested on: Proteus vulgaris; test: Antimicrobial activity against Proteus vulgaris Pv5 expressing beta-lactamase PER-1 by Etest
[13] = tested on: Providencia stuartii; test: Antimicrobial activity against Providencia stuartii Ps5 expressing beta-lactamase PER-1 by […]
[14] = tested on: Escherichia coli; test: Antimicrobial activity against rifampin-resistant Escherichia coli J53 transconjugated with Proteus vulgaris Pv9 expressing beta-lactamase PER-1 by […]
[15] = tested on: Providencia stuartii; test: Antimicrobial activity against Providencia stuartii Ps5 expressing beta-lactamase PER-1 by Etest
[16] = tested on: Proteus vulgaris; test: Antimicrobial activity against Proteus vulgaris Pv9 expressing beta-lactamase PER-1 by Etest
[17] = tested on: Escherichia coli; test: Antimicrobial activity against rifampin-resistant Escherichia coli J53 transconjugated with Proteus vulgaris Pv7 expressing beta-lactamase PER-1 by […]
[18] = tested on: Escherichia coli; test: Antimicrobial activity against rifampin-resistant Escherichia coli J53 transconjugated with Providencia stuartii Ps5 expressing beta-lactamase PER-1 by […]
[19] = tested on: Escherichia coli; test: Antimicrobial activity against rifampin-resistant Escherichia coli J53 transconjugated with Providencia stuartii Ps5 expressing beta-lactamase PER-1 by Etest
[20] = tested on: Escherichia coli; test: Antimicrobial activity against rifampin-resistant Escherichia coli J53 transconjugated with Proteus vulgaris Pv7 expressing beta-lactamase PER-1 by Etest

CO/N=C(\C(=O)N[C@@H]1C(=O)N2C(C(=O)[O-])=C(C[N+]3(C)CCCC3)CS[C@H]12)c1csc(N)n1 [CEFEPIME]
MIC [1]: 16 µg/mL (≈ 33.3 µM)
MIC [2]: 16 µg/mL (≈ 33.3 µM)
MIC [3]: 8 µg/mL (≈ 16.6 µM)
MIC [4]: 8 µg/mL (≈ 16.6 µM)
MIC [5]: 32 µg/mL (≈ 66.6 µM)
MIC [6]: 16 µg/mL (≈ 33.3 µM)
MIC [7]: 16 µg/mL (≈ 33.3 µM)
MIC [8]: 32 µg/mL (≈ 66.6 µM)
MIC [9]: 32 µg/mL (≈ 66.6 µM)
MIC [10]: 8 µg/mL (≈ 16.6 µM)
MIC [11]: 8 µg/mL (≈ 16.6 µM)
MIC [12]: 32 µg/mL (≈ 66.6 µM)
MIC [13]: 8 µg/mL (≈ 16.6 µM)
MIC [14]: 8 µg/mL (≈ 16.6 µM)
MIC [15]: 8 µg/mL (≈ 16.6 µM)
MIC [16]: 8 µg/mL (≈ 16.6 µM)

CO/N=C(\C(=O)N[C@@H]1C(=O)N2C(C(=O)O)=C(COC(C)=O)CS[C@H]12)c1csc(N)n1 [CEFOTAXIME]
MIC [1]: 32 µg/mL (≈ 70.3 µM)
MIC [2]: 32 µg/mL (≈ 70.3 µM)
MIC [3]: 16 µg/mL (≈ 35.1 µM)
MIC [4]: 32 µg/mL (≈ 70.3 µM)
MIC [17]: 32 µg/mL (≈ 70.3 µM)
MIC [5]: 32 µg/mL (≈ 70.3 µM)
MIC [6]: 32 µg/mL (≈ 70.3 µM)
MIC [7]: 32 µg/mL (≈ 70.3 µM)
MIC [8]: 32 µg/mL (≈ 70.3 µM)
MIC [9]: 32 µg/mL (≈ 70.3 µM)
MIC [10]: 32 µg/mL (≈ 70.3 µM)
MIC [11]: 16 µg/mL (≈ 35.1 µM)
MIC [18]: 32 µg/mL (≈ 70.3 µM)
MIC [12]: 32 µg/mL (≈ 70.3 µM)
MIC [19]: 32 µg/mL (≈ 70.3 µM)
MIC [13]: 32 µg/mL (≈ 70.3 µM)
MIC [14]: 32 µg/mL (≈ 70.3 µM)
MIC [15]: 32 µg/mL (≈ 70.3 µM)
MIC [16]: 32 µg/mL (≈ 70.3 µM)
MIC [20]: 31 µg/mL (≈ 68.1 µM)

CC(C)(O/N=C(\C(=O)N[C@@H]1C(=O)N2C(C(=O)[O-])=C(C[n+]3ccccc3)CS[C@H]12)c1csc(N)n1)C(=O)O [CEFTAZIDIME]
MIC [1]: > 256 µg/mL
MIC [2]: > 256 µg/mL
MIC [3]: > 256 µg/mL
MIC [4]: > 256 µg/mL
MIC [17]: > 256 µg/mL
MIC [5]: > 256 µg/mL
MIC [6]: > 256 µg/mL
MIC [7]: > 256 µg/mL
MIC [8]: > 256 µg/mL
MIC [9]: > 256 µg/mL
MIC [10]: > 256 µg/mL
MIC [11]: > 256 µg/mL
MIC [18]: > 256 µg/mL
MIC [12]: > 256 µg/mL
MIC [19]: > 256 µg/mL
MIC [13]: > 256 µg/mL
MIC [14]: > 256 µg/mL
MIC [15]: > 256 µg/mL
MIC [16]: > 256 µg/mL
MIC [20]: > 256 µg/mL

C[C@@H](O)[C@H]1C(=O)N2C(C(=O)O)=C(SCCNC=N)C[C@H]12 [IMIPENEM ANHYDROUS]
MIC [1]: 0.25 µg/mL (≈ 0.835 µM)
MIC [2]: 1 µg/mL (≈ 3.34 µM)
MIC [3]: 0.125 µg/mL (≈ 0.418 µM)
MIC [4]: 1 µg/mL (≈ 3.34 µM)
MIC [17]: 0.125 µg/mL (≈ 0.418 µM)
MIC [5]: 1 µg/mL (≈ 3.34 µM)
MIC [6]: 1 µg/mL (≈ 3.34 µM)
MIC [7]: 0.25 µg/mL (≈ 0.835 µM)
MIC [8]: 1 µg/mL (≈ 3.34 µM)
MIC [9]: 1 µg/mL (≈ 3.34 µM)
MIC [10]: 0.25 µg/mL (≈ 0.835 µM)
MIC [11]: 0.125 µg/mL (≈ 0.418 µM)
MIC [18]: 0.125 µg/mL (≈ 0.418 µM)
MIC [12]: 1 µg/mL (≈ 3.34 µM)
MIC [19]: 0.125 µg/mL (≈ 0.418 µM)
MIC [13]: 2 µg/mL (≈ 6.68 µM)
MIC [14]: 0.25 µg/mL (≈ 0.835 µM)
MIC [15]: 2 µg/mL (≈ 6.68 µM)
MIC [16]: 1 µg/mL (≈ 3.34 µM)
MIC [20]: 0.125 µg/mL (≈ 0.418 µM)

CCN1CCN(C(=O)N[C@@H](C(=O)N[C@@H]2C(=O)N3[C@@H]2SC(C)(C)[C@@H]3C(=O)O)c2ccccc2)C(=O)C1=O [PIPERACILLIN]
MIC [1]: 16 µg/mL (≈ 30.9 µM)
MIC [2]: 32 µg/mL (≈ 61.8 µM)
MIC [3]: 16 µg/mL (≈ 30.9 µM)
MIC [4]: 32 µg/mL (≈ 61.8 µM)
MIC [17]: 32 µg/mL (≈ 61.8 µM)
MIC [5]: 16 µg/mL (≈ 30.9 µM)
MIC [6]: 32 µg/mL (≈ 61.8 µM)
MIC [7]: 16 µg/mL (≈ 30.9 µM)
MIC [8]: 16 µg/mL (≈ 30.9 µM)
MIC [9]: 16 µg/mL (≈ 30.9 µM)
MIC [10]: 32 µg/mL (≈ 61.8 µM)
MIC [11]: 16 µg/mL (≈ 30.9 µM)
MIC [18]: 32 µg/mL (≈ 61.8 µM)
MIC [12]: 16 µg/mL (≈ 30.9 µM)
MIC [19]: 32 µg/mL (≈ 61.8 µM)
MIC [13]: 32 µg/mL (≈ 61.8 µM)
MIC [14]: 32 µg/mL (≈ 61.8 µM)
MIC [15]: 32 µg/mL (≈ 61.8 µM)
MIC [16]: 32 µg/mL (≈ 61.8 µM)
MIC [20]: 32 µg/mL (≈ 61.8 µM)

Reference: ChEMBL document CHEMBL1649576, “Emergence of extended-spectrum beta-lactamase PER-1 in Proteus vulgaris and Providencia stuartii isolates from Algiers, Algeria” (2009)
